Experimental data from patent publication US20260092085A1, “SYNTHETIC TRIPLEX PEPTIDE NUCLEIC ACID-BASED INHIBITORS FOR CANCER THERAPY” (University of Connecticut, priority 2022, published 2026).

How the values were obtained:
miR-155 = miR-155 gene expression by RT-PCR in SUDHL-2 cells; format: cell-based; conditions: SUDHL-2, 500 nM, 48 hours
Description: Data represented as mean±standard error mean (SEM). Unpaired two-tailed t-test was used for statistical analysis, **p<0.01. The analysis was performed relative to Scr-γtcPNA-155.
(§1) Similarly, 400,000 SUDHL-2 cells were seeded in a 12 well plate and treated with 500 nM Scr gamma tcPNA-155, PNA-155 and gamma tcPNA-155 for 48 hrs in an incubator (37° C. and 5% CO2). The RNA was extracted and the samples for gene expression were prepared in the same manner as described above.

SUDHL-5 cells = assay: Cell viability by trypan blue assay, SUDHL-5; format: cell-based
Description: (§2) Cell viability was performed using trypan blue-based assay (n=3 technical triplicate), data represented as mean±(SEM), * represents the statistical analysis were performed relative to Scr-γtcPNA-155 and ♦ represent analysis performed relative to PNA-155. *p<0.05, **p<0.01, ***p<0.001 and ****p<0.0001, ♦p<0.05, ♦♦p<0.01, unpaired two-tailed t-test was used for statistical analysis. The experiment was repeated three times and in triplicate.
(§3) Cell viability was performed using trypan blue-based assay (n=3), data represented as mean±standard error mean (SEM), *p<0.05, **p<0.01. Unpaired two-tailed t-test was used for statistical analysis.
(§4) Cell viability was performed using trypan blue-based assay (n=3), data represented as mean±standard error mean (SEM).
(§5) Cell viability by trypan blue assay: Diffused large B cell lymphoma (DLBCL) cell lines like SUDHL-2 (ATCC® CRL-2956™) and SUDHL-5 (ATCC® CRL-2958™) cells were purchased from ATCC (Virginia, USA). The cells were regularly tested for Mycoplasma contamination using MycoAlert™ Mycoplasma detection kit (Lonza). All the cells used in the experiment were passaged less than 8 times. 10,000 U2932, SUDHL-5, or SUDHL-2 cells were plated in a 96 well plate. The cells were treated with different doses (500 nM, 1000 nM, 2000 nM and 4000 nM) of PNA-155, gamma tcPNA-155 or Scr-γtcPNA-155 for 48 hrs in an incubator (37° C. and 5% CO2). The dead cells were marked with trypan blue. Further counting was performed using an automated cell counter (Bio-rad).

U2932 cells = assay: Cell viability by trypan blue assay, U2932; format: cell-based, human
Description: as §2, §3, §4, §5

miR-155 downstream genes = assay: Downstream gene expression and protein levels in U2932 tumor samples; format: in vivo, NSG mice; conditions: U2932 xenograft
Description: FIGS. 22A-D show in vivo gene expression and protein level analysis. (22A) miR-155 gene expression levels in U2932 tumor samples after in vivo treatment with indicated PNAs. Data was normalized with average control U6 (n=4, data represented as mean±standard error mean). ***p<0.001 (22B) Gene expression level of downstream target genes of miR-155: MCL1 in U2932 tumor samples after treatment with total 3 mg kg-1 dose of Scr-γtcPNA-155, PNA-155, γPNA-155 and γtcPNA-155 and normalized with average control GAPDH (n=3, data represented as mean±SEM), unpaired two-tailed t-test was performed for analysis). *p<0.05, **p<0.01 (22C) Representative western blot of Mcl-1 protein and its quantification (n=3 technical replicate) in U2932 tumor samples treated with total 3 mg kg-1 dose of Scr-γtcPNA-155, PNA-155 and γtcPNA-155. Data is represented as mean±SEM and unpaired two-tailed t-test was performed for analysis. *p<0.05. The relative protein levels were determined from the band intensity using ImageJ software and normalized relative to loading control and treatment control. (22D) Gene expression level of tumor suppressor proteins (FOXO3A, CUX1, SOCS1, CSF1R, JARID2, SHIP1, PICALM, PDCD4, BACH1, CASP3) in U2932 tumor samples after treatment with total 3 mg kg-1 dose of Scr-γtcPNA-155, PNA-155, γPNA-155 and γtcPNA-155 and normalized with average control GAPDH (n=3, data represented as mean±SEM, unpaired two-tailed t-test was performed for statistical analysis). *p<0.05, **p<0.01.
Data is represented as mean±SEM and unpaired t-test was used for statistical analysis *p<0.05. The relative protein levels were determined from the band intensity using ImageJ software and normalized relative to loading control and treatment control.
Data is represented as mean±SEM and unpaired t-test was used for statistical analysis.
Data is represented as mean±SEM and unpaired t-test was used for statistical analysis. The relative protein levels were determined from the band intensity using ImageJ software and normalized relative to loading control and treatment control.
RNA and Protein extraction from tumor samples: The mice were injected intra-tumorally with 1 mg kg-1 dose of PNA-155, γtcPNA-155, γPNA-155, Scr-γtcPNA-155 or were untreated. The injections were repeated two additional times after 1 week each. The length, breadth, and depth of the tumors were measured daily using a vernier caliper. The mice were euthanized when the tumor volumes reached 2000 mm^3. The resected tumor sections were finely minced using a sterile blade and suspended in dissociation media (4 ml) comprising of RPMI-1640, 1.2 mg/ml dispase, and 0.5 mg/ml collagenase for 90 mins at 500 rpm at 37° C. The dissociated tumors were washed with buffer saline at 2500 rpm (4 mins) at 4° C. and then suspended in 0.25% trypsin for 4 mins at room temperature. RPMI 1640 media was added to the trypsinized tumor mass, and the cells were passed through a 70 um filter. The cells were centrifuged at 2500 rpm for 4 mins at 4° C. The cell pellet was then suspended in 1×RBC lysis buffer (Sigma) and incubated on ice for 10 mins. PBS was added to the cells and the cells were passed through a 40 um filter. The cells were centrifuged at 2500 rpm for 4 mins at 4° C. The cell pellet was resuspended in 0.5% BSA in PBS. The mouse cells were removed from the tumor cells using a mouse cell depletion kit (Miltenyi Biotec) according to the manufacturer's protocol. The enriched tumor cells from each tumor sample were divided into two fractions. RNA for gene expression analysis was extracted from one tumor fraction by the same procedure as mentioned earlier. The protein for western blot analysis was extracted from the second fraction using the method described above.

[1] = system: miR-155 associated tumor suppressor genes; assay: Gene expression of miR-155 downstream tumor suppressor genes in SUDHL-2 cells; format: cell-based; conditions: SUDHL-2, in comparison to Scr-γtcPNA-155 and PNA-155
Description: Data is normalized with average GAPDH control (n=3), and represented as mean±SEM, **p<0.01. Unpaired two tailed t-test was used for statistical analysis and the analysis was performed relative to Scr-gtcPNA-155.
as §1

γtcPNA-155: serine gamma tail-clamp anti-miR-155 PNA, RR-TJJJJ-OOO-ACCCCTATCACGATTAGCATTAA-RR, SEQ ID NO: 3 (all peptide nucleic acid (PNA); serine gamma PNA, tail-clamp TJJJJ via linkers, Arg-Arg at both ends)
decrease in miR-155 gene expression (miR-155): 63%
reduction in cell viability at 500 nM (SUDHL-5 cells; SUDHL-5, 500 nM, compared to PNA-155 treated group): significant reduction in cell viability
decrease in cell viability (SUDHL-5 cells; SUDHL-5, 4UM, 48 hours): ~80%
reduction in cell viability at 500 nM (U2932 cells; U2932, 500 nM, compared to PNA-155 treated group): significant reduction in cell viability
decrease in cell viability (U2932 cells; U2932, 4UM, 48 hours): ~80%
upregulation of tumor suppressor genes in tumors (miR-155 downstream genes; intratumoral): significant upregulation
decrease in MCL1 mRNA levels in tumors (miR-155 downstream genes; total 3 mg kg-1, compared to PNA-155 treated group): ~50%
increase in Caspase-3 protein levels in tumors (miR-155 downstream genes; versus Scr-γtcPNA-155-treated tumors): 23%
Mcl-1 protein level in tumors (miR-155 downstream genes; western blot): reduction in the protein levels
upregulation of miR-155 associated tumor suppressor genes [1]: significant upregulation
